Read-outs that look alike come from different tables or passages of the source.
Legend:
[1] = molecular target: hGLP-1R (Homo sapiens, UniProt P43220); assay: Functional cAMP formation (HTRF) in HEK-293 clonal cells expressing hGLP-1R, 0.1% bovine casein, without or with 1.0% human serum albumin; format: cell-based; design: expressed in transfected cells; settings: 37° C.; for EC50: 0.1% bovine casein and 1.0% human serum albumin, geometric mean, read-out: hGLP-1R EC50, nM (SEM, n); for Emax: HEK293, percent of maximal response to GLP-1(7-36)NH2, 0.1% bovine casein, arithmetic mean, read-out: hGLP-1R Emax, % ± SEM
Method in brief: (§1)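 Cells were stimulated with peptide for 30 min at 37° C, then lysed in buffer carrying cAMP-d2 and anti-cAMP Eu3+-cryptate for a competitive HTRF read after at least 60 min at room temperature. The 665/620 nm ratio was converted to nM cAMP against a standard curve.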

[2] = molecular target: T1, hGCGR (Homo sapiens, UniProt P47871); assay: Functional cAMP formation (HTRF) in HEK-293 clonal cells expressing hGCGR, 0.1% bovine casein, without or with 1.0% human serum albumin; format: cell-based; settings: geometric mean, read-out: hGCGR EC50, nM (SEM, n)
T1 construct: expressed in transfected cells
Method in brief: as §1

[3] = molecular target: T2, human GLP-1 receptor (hGLP-1R) (Homo sapiens, UniProt P43220); assay: [125I]-GLP-1 binding, SPA with membranes of HEK293 cells expressing hGLP-1R; settings: human GLP-1R; geometric mean (SEM, n); read-out: Binding Affinity Ki, nM (SEM, n) hGLP-1R
T2 construct: expressed in transfected cells; crude membranes
Description: Two methods are used for the preparation of crude cell membranes.
Method 1: Frozen cell pellets are lysed on ice in hypotonic buffer containing 50 mM Tris HCl, pH 7.5, and Roche Complete™ Protease Inhibitors with EDTA. […] The homogenate is centrifuged at 4° C. at 1100 × g for 10 minutes. The supernatant is collected and stored on ice while the pellets are resuspended in homogenization buffer and rehomogenized as described above. The homogenate is centrifuged at 1100 × g for 10 minutes. The second supernatant is combined with the first supernatant and centrifuged at 35000 × g for 1 hour at 4° C. The resulting membrane pellet is resuspended in homogenization buffer containing protease inhibitors at approximately 1 to 3 mg/mL, quick frozen in liquid nitrogen and stored as aliquots in a -80° C. freezer until use.
The homogenate is centrifuged at 4° C. at 1800 × g for 15 minutes. The supernatant is collected and stored on ice while the pellets are resuspended in homogenization buffer (without DNAse I) and rehomogenized as described above. The homogenate is centrifuged at 1800 × g for 15 minutes. The second supernatant is combined with the first supernatant and centrifuged an additional time at 1800 × g for 15 minutes. The overall supernatant is then centrifuged at 25000 × g for 30 minutes at 4° C. The resulting membrane pellet is resuspended in homogenization buffer (without DNAse I) containing protease inhibitors at approximately 1 to 3 mg/mL and stored as aliquots in a -80° C. freezer until use.
The human GLP-1 receptor binding assay is performed using an SPA format with WGA beads. The binding buffer contains 25 mM HEPES, pH 7.4, 2.5 mM CaCl2, 1 mM MgCl2, 0.1% (w/v) bacitracin, 0.003% (w/v) TWEEN®-20, and Roche Complete™ Protease Inhibitors without EDTA.
Raw CPM data for concentration curves of peptides, Gcg, GLP-1, or GIP are converted to percent inhibition by subtracting nonspecific binding (binding in the presence of excess unlabeled Gcg, GLP-1, or GIP, respectively) from the individual CPM values and dividing by the total binding signal, also corrected by subtracting nonspecific binding. Data are analyzed using four-parameter (curve maximum, curve minimum, IC50, Hill slope) nonlinear regression routines (Genedata Screener, version 12.0.4, Genedata AG, Basal, Switzerland). […] Values for Ki are reported as the geometric mean, with error expressed as the standard error of the mean (SEM) and n is equal to the number of independent replicates (determined in assays performed on different days). Geometric Means are calculated as follows: […]
The Ki Ratio (Ki for native control peptide/Ki for test compound) at each receptor and each species is calculated. The Ki Ratio is a rapid indication of the apparent affinity of a peptide compared to the native control peptide.
n=⅟x means that only one value out of the total number of replicates (x) is used to express the mean. SEM is only calculated when n=2 or greater non-qualified results exist. Means are expressed as GeoMetric means with the standard error of the mean (SEM) and the number of replicates (n) indicated in parenthesis.

[4] = molecular target: T3, hGIPR (Homo sapiens, UniProt P48546); assay: Functional cAMP formation (HTRF) in HEK-293 clonal cells expressing hGIPR, 0.1% bovine casein, without or with 1.0% human serum albumin; format: cell-based; settings: 37° C.; for EC50: 0.1% bovine casein and 1.0% human serum albumin, geometric mean, read-out: hGIPR EC50, nM (SEM, n)
T3 construct: expressed in transfected cells
T3 sequence (P48546 22-466): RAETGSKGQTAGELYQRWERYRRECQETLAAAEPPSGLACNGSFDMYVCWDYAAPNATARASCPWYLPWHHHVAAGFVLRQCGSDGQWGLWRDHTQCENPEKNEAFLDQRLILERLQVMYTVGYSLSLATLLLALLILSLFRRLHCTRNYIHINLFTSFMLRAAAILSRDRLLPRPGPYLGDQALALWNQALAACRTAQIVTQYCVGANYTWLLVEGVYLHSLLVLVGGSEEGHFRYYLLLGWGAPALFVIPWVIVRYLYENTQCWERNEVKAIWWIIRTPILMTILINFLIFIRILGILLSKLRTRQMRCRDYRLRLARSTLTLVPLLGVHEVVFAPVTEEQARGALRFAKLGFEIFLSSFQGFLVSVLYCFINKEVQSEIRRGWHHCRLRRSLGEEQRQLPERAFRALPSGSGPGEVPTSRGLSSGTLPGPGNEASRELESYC
Method in brief: as §1

[5] = molecular target: human GLP-1 receptor (human, UniProt P43220 24-463); assay: cell-based or functional assay
[6] = molecular target: human glucagon receptor (human, UniProt P47871 26-477); assay: cell-based or functional assay
[7] = molecular target: T4, human GIP receptor (human, UniProt P48546 22-466); assay: cell-based or functional assay
T4 sequence (looked up): T3 sequence (P48546 22-466)

hGLP-1R, sequence (P43220 24-463): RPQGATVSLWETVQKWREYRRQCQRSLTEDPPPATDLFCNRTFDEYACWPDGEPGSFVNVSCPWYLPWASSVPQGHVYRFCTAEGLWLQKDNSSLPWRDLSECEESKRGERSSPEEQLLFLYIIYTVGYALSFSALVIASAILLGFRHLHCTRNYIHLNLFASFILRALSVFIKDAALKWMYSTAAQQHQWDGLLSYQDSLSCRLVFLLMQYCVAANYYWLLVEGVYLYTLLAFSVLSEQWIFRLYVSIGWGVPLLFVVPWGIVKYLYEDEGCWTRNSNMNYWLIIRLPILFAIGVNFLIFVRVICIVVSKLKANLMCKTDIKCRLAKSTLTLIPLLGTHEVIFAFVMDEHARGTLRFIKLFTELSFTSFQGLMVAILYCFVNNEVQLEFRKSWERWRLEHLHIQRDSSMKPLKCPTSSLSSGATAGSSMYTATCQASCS
T1 sequence (P47871 26-477): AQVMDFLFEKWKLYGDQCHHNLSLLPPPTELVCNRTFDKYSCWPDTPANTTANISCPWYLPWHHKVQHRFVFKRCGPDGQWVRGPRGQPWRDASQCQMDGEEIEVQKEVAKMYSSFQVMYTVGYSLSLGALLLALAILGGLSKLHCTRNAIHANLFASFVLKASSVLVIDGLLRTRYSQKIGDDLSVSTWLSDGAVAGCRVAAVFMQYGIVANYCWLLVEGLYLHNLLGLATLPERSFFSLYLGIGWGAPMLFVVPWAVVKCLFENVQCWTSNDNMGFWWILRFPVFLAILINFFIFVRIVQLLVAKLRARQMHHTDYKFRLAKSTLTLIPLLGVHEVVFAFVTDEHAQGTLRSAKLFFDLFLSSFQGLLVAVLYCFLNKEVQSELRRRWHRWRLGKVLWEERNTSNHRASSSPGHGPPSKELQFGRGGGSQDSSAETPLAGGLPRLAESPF
T2 sequence (P43220 24-463): as the sequence (P43220 24-463) above

With `CCCCCCCCCCCCCCCC(=O)N[C@@H](CCC(=O)NCCOCCOCC(=O)NCCOCCOCC(=O)NCCCC[C@H](NC(=O)[C@H](CCCN)NC(=O)[C@H](CC(=O)O)NC(=O)[C@H](CC(C)C)NC(=O)[C@](C)(CC(C)C)NC(=O)[C@@H](NC(=O)[C@H](CO)NC(=O)[C@H](CCCCNC(=O)COCCOCCNC(=O)COCCOCCNC(=O)CC[C@H](NC(=O)CCCCCCCCCCCCCCC)C(=O)O)NC(=O)[C@H](CC(=O)O)NC(=O)[C@H](CO)NC(=O)[C@@H](NC(=O)[C@](C)(Cc1ccccc1F)NC(=O)[C@@H](NC(=O)CNC(=O)[C@H](CCC(=O)O)NC(=O)C(C)(C)NC(=O)[C@@H](N)Cc1ccc(O)cc1)[C@@H](C)O)[C@@H](C)O)[C@@H](C)CC)C(=O)N[C@@H](C)C(=O)N[C@@H](CCC(N)=O)C(=O)NC(C)(C)C(=O)N[C@@H](CCC(=O)O)C(=O)N[C@@H](Cc1ccccc1)C(=O)N[C@H](C(=O)N[C@H](CCC(=O)O)C(=O)N[C@@](C)(Cc1ccc(O)cc1)C(=O)N[C@@H](CC(C)C)C(=O)N[C@H](C(=O)N[C@@H](CCC(=O)O)C(=O)NCC(=O)NCC(=O)N1CCC[C@H]1C(=O)N[C@@H](CO)C(=O)N[C@@H](CO)C(=O)NCC(=O)N[C@@H](C)C(=O)N1CCC[C@H]1C(=O)N1CCC[C@H]1C(=O)N1CCC[C@H]1C(=O)N[C@@H](CO)C(N)=O)[C@@H](C)CC)[C@@H](C)CC)C(=O)O` [Example 29] the EC50 [1] was 0.876 nM, the Emax [1] was 100 ± 6.65% and the EC50 ([2]; 0.1% bovine casein and 1.0% human serum albumin, 37° C.) was greater than 9950 nM. It also gave an EC50 ([2]; cAMP, incubated at 37° C., 0.1% bovine casein (no human serum albumin)) greater than 9950 nM, a Ki [3] of 0.412 nM and an EC50 [4] of 0.472 nM. The Emax ([4]; HEK293, 0.1% bovine casein and 1.0% human serum albumin, percent of maximal response to GIP(1-42)NH2, read-out: hGIPR Emax, % ± SEM) was 96.9 ± 5.32%.

`CCCCCCCCCCCCCCCC(=O)N[C@@H](CCC(=O)NCCOCCOCC(=O)NCCOCCOCC(=O)NCCCC[C@H](NC(=O)CNC(=O)CNC(=O)[C@H](CCC(=O)O)NC(=O)[C@@H](NC(=O)[C@H](CC(C)C)NC(=O)[C@](C)(Cc1ccc(O)cc1)NC(=O)[C@@H](CCC(=O)O)NC(=O)[C@@H](NC(=O)[C@H](Cc1ccccc1)NC(=O)[C@H](CCC(=O)O)NC(=O)C(C)(C)NC(=O)[C@H](CCC(N)=O)NC(=O)[C@H](C)NC(=O)[C@H](CCCCNC(=O)COCCOCCNC(=O)COCCOCCNC(=O)CC[C@H](NC(=O)CCCCCCCCCCCCCCC)C(=O)O)NC(=O)[C@H](CCCN)NC(=O)[C@H](CC(=O)O)NC(=O)[C@H](CC(C)C)NC(=O)[C@](C)(CC(C)C)NC(=O)[C@@H](NC(=O)[C@H](CO)NC(=O)[C@H](Cc1ccncc1)NC(=O)[C@H](CC(=O)O)NC(=O)[C@H](CO)NC(=O)[C@@H](NC(=O)[C@](C)(Cc1ccccc1F)NC(=O)[C@@H](NC(=O)CNC(=O)[C@H](CCC(=O)O)NC(=O)C(C)(C)NC(=O)[C@@H](N)Cc1ccc(O)cc1)[C@@H](C)O)[C@@H](C)O)[C@@H](C)CC)[C@@H](C)CC)[C@@H](C)CC)C(=O)N[C@@H](CO)C(=O)N[C@@H](CO)C(=O)NCC(=O)N[C@@H](C)C(=O)N1CCC[C@H]1C(=O)N1CCC[C@H]1C(=O)N1CCC[C@H]1C(=O)N[C@@H](CO)C(N)=O)C(=O)O` [Example 7] was tested, and the EC50 [1] was 2.74 nM, the Emax [1] was 95.4 ± 5.03% and the Ki [3] was 0.362 nM. The EC50 [4] was 0.566 nM.

B1: Y-Aib-EGT-αMeF(2F)-TSD-4Pal-SI-αMeL-LD-Orn-IAQ-Aib-EFI-(D-Glu)-αMeY-LIK((2-[2-(2-Amino-ethoxy)-ethoxy]-acetyl)2-(γ-Glu)-(4-(4-tert-butylphenyl)butanoyl))GGPSSGA … (peptide)
peptide: YXEGTXTSDXSIXLDXIAQXEFIXXLIKGGPSSGAPPPSK
modifications: Aib2, αMeF(2F)6, 4Pal10, αMeL13, Orn16, Aib20, D-Glu24, αMeY25; acylated K28, K40 (groups as in name); C-terminal amide
B1 was tested, and the “cAMP EC50 (1.0% HSA)” value [5] was 3.03 nM, the “cAMP Emax (1.0% HSA)” value [5] was 98.1% and the “cAMP EC50 (1.0% HSA)” value [6] was greater than 9950 nM. The “cAMP EC50 (1.0% HSA)” value [7] was 0.242 nM and the “cAMP Emax (1.0% HSA)” value [7] was 77.6%.

B2: Y-Aib-EGT-αMeF(2F)-TSD-4Pal-Tle-I-αMeL-LD-Orn-K((2-[2-(2-Amino-ethoxy)-ethoxy]-acetyl)2-(γ-Glu)-CO-(CH2)12-CO2H)AQ-Aib-EFI-(D-Glu)-αMeY-LIEGGK((2-[2-(2-Amino-et … (peptide)
peptide: YXEGTXTSDXXIXLDXKAQXEFIXXLIEGGKSSGAPPPS
modifications: Aib2, αMeF(2F)6, 4Pal10, Tle11, αMeL13, Orn16, Aib20, D-Glu24, αMeY25; acylated K17, K31 (groups as in name); C-terminal amide
B2 was tested, and the “cAMP EC50 (1.0% HSA)” value [5] was 62.2 nM, the “cAMP Emax (1.0% HSA)” value [5] was 109% and the “cAMP EC50 (1.0% HSA)” value [6] was greater than 9950 nM. For the same molecule, the “cAMP EC50 (1.0% HSA)” value [7] was 6.09 nM and the “cAMP Emax (1.0% HSA)” value [7] was 75.3%.

Reference: patent US20230265151A1, “GIP/GLP1 CO-AGONIST COMPOUNDS” (priority 2020, published 2023)
